According to patent US9162975B2, “Phenyl carbamate compounds for use in alleviating or treating pain” (Bio-Pharm Solutions Co., Ltd., priority 2011, dated 2015):

Key:
ICR mice [1] = experiment: Hot-plate test; assay type: in vivo; conditions: withdrawal latency relative to vehicle control, 150 mg/kg po, hot plate 55±1° C.
Method: To examine the pain relief effect of the phenyl carbamate compounds, a hot-plate test was conducted in general pain animal model referring to Current Protocols in Neuroscience; Behavioral Neuroscience Unit 8.9.
(§1) ICR mice (male, 30-35 g; Orient Bio, Korea) were habituated before test in test room for 1 hour Animals were fasted 2 hr before administration of compounds. Each of Compound 1, 2, 3, 4, 5, 63, 65, and 67 was orally administered at the dose of 150 mg/kg, 10 ul/g, bw (n=7˜10/group). All compounds were dissolved in a vehicle of 30% (v/v) PEG 400 or 20% (v/v) Tween 80. The control group was treated the vehicle without compounds.
0.5 hr after the administration of compounds, the mice were put on a hot plate pre-heated to 55±1° C. (Hu, X. et al, 2008), and then, measured as the withdrawal latency (cut-off time: 30 sec) time until the point when each mouse was taking off a paw from the plate, shaking, licking a paw or hind leg, or jumping from the plate.

ICR mice [2] = experiment: Writhing test (acetic acid); assay type: in vivo; conditions: number of writhes relative to vehicle control, 20 mg/kg po, 0.6% acetic acid
Method: To examine the pain relief effect of the phenyl carbamate compounds, a writhing test was conducted in general pain animal model referring to Fischer, L. G. et al. (2008).
as §1, with “24-28” for “30-35”, “hr,” for “hr”, “20” for “150”, “(n=3˜5/group).” for “(n=7˜10/group).”
One hour after the administration of Compounds, 0.6% acetic acid at the dose of 10 ul/g, bw was injected into the mice. Animals were habituated in the cage for 5 min 5 min after habituation, the number of writhes (abdominal constriction) for 15 min was counted referring to Korzeniewska-Rybicka, I. et al. (1998) and compared with that of a control.

mice = experiment: Measurement of neurotoxicity (rotarod); assay type: in vivo; conditions: protective index, ratio of TD50 to ED50 in MES
Method: The measurement of neurotoxicity of the test compounds was conducted by the method of Dunham and Miya [Dunham, N. W. and Miya, T. S. 1957. A note on a simple apparatus for detecting neurological deficit in rats and mice. J. Am. Pharm. Assoc. (Baltimore) 46: 208-209]. In the method, motor abilities of the test animals can be determined by observing whether the test animals can walk without falling from a rotator, thereby determining the value of neurotoxicity of each compound. […] They were pre-trained on the rotarod (Rotarod; Columbus instrument, rota-max, USA) at 6 rpm for 5 min 24 hr prior to the test. The peak time was determined by administration test material's random dose for 0.5, 1, 2, 4 hour. […] The ratio of TD50 to ED50 (TD50/ED50) is called as a protective index, and useful as a parameter for comparison of pharmaceutical efficacy and neurotoxicity.

SNL model in rats = experiment: Antiallodynic activity on Chung model (SNL, spinal nerve ligation), von Frey; assay type: in vivo, Sprague-Dawley rats; conditions: paw withdrawal threshold relative to sham, 50 mg/kg p.o.
Method: Male Sprague-Dawley rats (200-220 g, Orient Bio, Korea) were habituated for 1 week before the experiment and allowed free access to food and water throughout the experimentation. Room temperature and humidity were maintained at 24±2° C. and 50±10%, respectively. Neuropathic surgery (SNL, Spinal nerve ligation) model was done as described in Kim and Chung (1992). Briefly, animal under gaseous anesthesia with isoflurane a 4:4 flow ratio of NO2. The left lumber spinal nerve L5 and L6 were isolated and tightly ligated with 4˜0 silk thread. The wound was treated with a gentamicin antibiotics solution (4 mg/kg, 4 ul/g, bw), and the wound muscle was closed with cat cut chrome 4/0 thread and skin was closed dafilon 4/0 tread. Sham controls were prepared in the same manner as the spinal nerves were exposed, but no ligated L5 and L6 nerves. But, vehicle controls were identical to SNL model, except for administration of vehicles.
Tactile sensitivity (Mechanical allodynia) was evaluated using von Frey monofilaments before and after treatment and animals were used withdrawal threshold value was less than 4 g. […] The tactile sensitivity for ipsilateral hind paw was measured using the up-and-down method (Dixon, 1980) with seven von Frey monofilaments (0.4, 1, 2, 4, 6, 8, and 15 g) to 3 trials. […] The 50% paw withdrawal threshold for each paw was calculated using the following formula: [Xth] log=[vFr] log+ky where [vFr] is the force of the last von Frey used, k=0.2249 which is the average interval (in log units) between the von Frey monofilaments, and y is a value that depends upon the pattern of withdrawal responses (Dixon, 1980).
All animals were fasted 18 h before the administration of the compounds. Antiallodynic effect of compounds of Examples 1, 63 and 65 were evaluated at the dose of 5, 10 and 30 mg/kg (n=5˜6), orally administrated in a volume of 5 ul/g, bw in a vehicle of 30% (v/v) PEG 400 (Examples 1 and 63) or 20% (v/v) Tween 80 (Example 65). […]

Row | SMILES | Hot-plate test (150 mg/kg, 0.5 h, po) % Control (ICR mice [1]) | Writhing test (20 mg/kg, 1 h, po) % Control (ICR mice [2]) | PI(TD50/ED50 in MES) (mice) | SNL (50 mg/kg, 1 h, p.o.) % Control (SNL model in rats)
1 | C[C@H](OC(N)=O)[C@H](O)c1ccccc1Cl [Example 5, 1-(2-chlorophenyl)-(R)-1-hydroxypropyl-(S)-2-carbamate] | 145.5% | 66.6% | 3.3 | –
2 | CC(OC(N)=O)C(O)c1ccccc1Cl (racemic) [Example 3, 1-(2-chlorophenyl)-1-hydroxypropyl-2-carbamate] | 120.5% | 84.8% | 12.0 | –
3 | C[C@@H](OC(N)=O)[C@@H](O)c1ccccc1Cl [Example 4, 1-(2-chlorophenyl)-(S)-1-hydroxypropyl-(R)-2-carbamate] | 108.2% | 75.5% | – | –
4 | C[C@@H](OC(N)=O)[C@H](O)c1ccccc1Cl [Example 2, 1-(2-chlorophenyl)-(R)-1-hydroxypropyl-(R)-2-carbamate] | 129.8% | 73.8% | 7.3 | –
5 | C[C@H](OC(N)=O)[C@@H](O)c1c(Cl)cccc1Cl [Example 37, 1-(2,6-dichlorophenyl)-(S)-1-hydroxypropyl-(S)-2-carbamate] | – | – | 5.1 | –
6 | C[C@H](OC(N)=O)[C@@H](O)c1ccccc1F [Example 63, 1-(2-fluorophenyl)-(S)-1-hydroxypropyl-(S)-2-carbamate] | 183.1% | 63.9% | – | 55.4%
7 | CC[C@H](OC(N)=O)[C@@H](O)c1ccccc1I [Example 67, 1-(2-iodophenyl)-(S)-1-hydroxybutyl-(S)-2-carbamate] | 131.4% | 68.3% | – | –
8 | C[C@H](OC(N)=O)[C@@H](O)c1ccccc1I [Example 65, 1-(2-iodophenyl)-(S)-1-hydroxypropyl-(S)-2-carbamate] | 104.1% | 60.6% | – | 76.8%
